One data set addresses T1, SOD1 in Hep G2 cells (Homo sapiens, UniProt P00441).
T1 construct: endogenous in cells; host or cells: Hep G2
The data set is described as follows: SOD1 cross-linking in Hep G2 cells, western blot. Type of data set: cell-based. The note with it: for cross-linking of SOD1 in cells, result in words: Hep G2 cells, increasing concentrations, compared with α-lipoic acid. How it is done: Hep G2 cells were cultures in DMEM with 10% fetal bovine serum and penicillin/streptomycin in 96 well Costar® Corning CellBIND plate with 5% CO2 at 37° C. The cells were cultured to monolayer confluency. […] Stocks were diluted twenty-fold in 1×PBS (final DMSO 5%). Cells were treated with 200 uL of compound and incubated for 30 minutes at 37° C. 5% CO2. Cells were washed with 1×PBS and 20 μL of 6× nonreducing sample buffer was added to each well. The 96 well plate was heated to 90° C. for 10 minutes. Samplers were spun at 14000 RPM for 5 minutes in a Beckman Coulter Microfuge®18 centrifuge. Samples were run using a Bio Rad Mini-Protean electrophoresis chamber on 12% precast TGX polyacrylamide gels at 150V. After separation was complete, gels were extracted from the cassettes and incubated in an in-house transfer buffer for 10 minutes are 90° C. to ensure thorough transfer of protein bands and thorough binding of antibody (25 mM Tris, 192 mM glycine, 10 mM 2-mercaptoethanol, 0.1% SDS). Transfer was performed with a Bio Rad Trans-blot turbo transfer system using a trans-clot turbo transfer pack. Membranes were dried, blocked with 5% milk for 2 h at room temperature. Membranes were then probed with primary antibody, anti-SOD1 antibody SOD100 overnight at 4° C. Membranes are incubated with HRP-labeled secondary antibodies and visualized using ECL Western Blotting Substrate and imaged using the ChemiDoc MP.
(In western blotting, separated proteins are transferred to a membrane and probed.)

The next data set has as its target T2, C111S SOD1 (Homo sapiens, UniProt P00441, C112S).
T2 construct: made in house; host or cells: EGy118ΔSOD1 yeast, vector YEp-351
Nature of the data set: Localization of cross-link using point mutated C111S SOD1 (LC-MS). Particulars: 10 μM SOD1, 100 μM compound, overnight, room temperature. Type of data set: biochemical. How it is done: Aliquots from each of the SOD1 incubations were individually diluted ten-fold with H2O containing 0.1% formic acid and analyzed using reversed phase C18 LC-MS on a Bruker HCT Ultra ion trap. The resulting data were processed using DataAnalysis 3.4 (Bruker Daltonics). Mass spectra were averaged across the retention times corresponding to when SOD1 eluted and were deconvoluted to determine the molecular weight of the uncharged species.

Data set [1] concerns the target T3, WT SOD1 (Homo sapiens, UniProt P00441).
T3 construct: made in house; host or cells: EGy118ΔSOD1 yeast, vector YEp-351
Nature of the data set: SOD1 cross-linking kinetics, mass spectrometry assay (percent covalent dimer). It is filed as biochemical. Particulars: for % of SOD1 cross-linked after 10 min of incubation: 50 μM SOD1, 1000 μM compound (20× excess), pH 7.4, 10 min; for binding to single Cys residues (free Cys111 and Cys6) of SOD1: any sample; for cross-linking of SOD1, result in words (FIG. 13): 1:1 ratio of SOD1 dimer:cross-linker. An excerpt:
The reaction was monitored using a mass spectrometry (MS) assay that uses a combination of increased voltage within the region of hypersonic gas expansion and brief treatment with 10% formic acid to create exclusively monomeric SOD1 or covalently cross-linked SOD1 dimer. Formic acid also quenches the reaction, transforming any reactive thiolates to unreactive thiols. As a result, if no reaction occurs, only apo SOD1 monomer is detected (FIG. 2, top). […] Given sufficient time for thiolates to be oxidized to sulfenic acid (which occurs on the order of days-weeks), even 1,2-dithiane was expected to cross-link SOD1. After 72 h of incubation with 1,2-dithiane, 11% of SOD1 had formed the expected covalent dimer (FIG. 5).
Human WT SOD1 was expressed in yeast. […] Dilution in HPLC-Grade water to 1 mM cyclic disulfide was performed prior to experimentation. As a negative control, 50 μM human WT SOD1 was incubated at 37° C. with 4% HPLC-grade methanol. At every time point, 1 μL of each sample was removed from their respective reaction vial for analysis. Samples were briefly (˜30 seconds) incubated at room temperature with 10% formic acid to remove metals from SOD1 and quench cross-linking reaction prior to mass spectrometry analysis. Samples were then diluted to 1 μM SOD1 in 50:50 acetonitrile:water, 0.1% FA and analyzed by direct infusion into a Bruker SolariX XR FT-ICR mass spectrometer. The percent dimer formation was calculated by comparing the relative dimer (31,808 Da) and monomer (15,844 Da) MaxEnt deconvoluted peak heights (Dimer/(Dimer+Monomer)). Identical methods were used in the kinetics of α-lipoic acid and β-lipoic acid. Kinetics of 1,2-dithiepane vs. 1,2-dithiepane-1-oxide were performed at a 1:1 ratio of SOD1 dimer:cross-linker.

Data set [2] concerns the target T3, WT SOD1. Nature of the data set: In vitro DTT competition assay. It is filed as biochemical. The note with it: 1:1 cross-linker:DTT (equimolar), 24 h, 37° C. How it is done:
Purified WT SOD1 was diluted to 50 μM in 10 mM ammonium acetate, pH 7.4. […] DTT solutions were made in 100% HPLC grade H2O. DTT solution concentrations were 1 mM, 2 mM and 4 mM. Samples were left to incubate at 37° C. for 24 h. Samples were then diluted to 1 μM SOD1 in 50:50 acetonitrile:water, 0.1% FA and analyzed by direct infusion into a Bruker Solarix XR FT-ICR mass spectrometer

Data set [3] deals with T3, WT SOD1. Nature of the data set: In vitro glutathione competition assay. Type of data set: biochemical. The procedure:
Purified WT SOD1 was diluted to 10 μM in 10 mM ammonium acetate, pH 7.4. […] Samples were briefly (30 seconds) incubated at room temperature with 10% formic acid to remove metals from SOD1 prior to mass spectrometry analysis. Samples were then diluted to 1 μM SOD1 in 50:50 acetonitrile:water, 0.1% FA and analyzed by direct infusion into a Bruker Solarix XR FT-ICR mass spectrometer. The percent dimer formation was calculated by comparing the relative dimer (31,808 Da) and monomer (15,844 Da) MaxEnt deconvoluted peak heights (Dimer/(Dimer+Monomer))

For a further data set, the system named is SH-SY5Y cells. It is filed as cell-based. Particulars: 24 h. How it is done: Human immortalized neuroblastoma cells (SH-SY5Y) were purchased from ATCC (Manassas, Virginia, USA). Cells were grown in Eagle's Minimum Essential Medium (EMEM) supplemented with 10% fetal bovine serum at 37° C. and 5% CO2 to >70% confluency. […] Following incubation with 1,2-dithaine-1-oxide, 22 μL of PrestoBlue® was added to each well and allowed to incubate for 10 min at 37° C. Excitation/emission was measured at 560/590 (in nm) using an Infinite® 200 plate reader (Tecan, Mannedorf, Switzerland). Cell viability was quantified relative to untreated cells.

For another data set, the target named is T4, SOD1 in HeLa cells (Homo sapiens, UniProt P00441).
T4 construct: endogenous in cells; host or cells: HeLa
Nature of the data set: SOD1 cross-linking in HeLa cells, western blot. Type of data set: cell-based. Particulars: EC50 for cross-linking of SOD1, HeLa cells. The procedure:
HeLa cells were cultured in DMEM with 10% fetal bovine serum and penicillin/streptomycin in 24 well Costar® Corning CellBIND plate with 5% CO2 at 37° C. The cells were cultured to monolayer confluency. […] The 100 mM solution diluted to various concentrations with 1×PBS solution. 1 mL of solutions was added to the HeLa cells in the 24 well plate. […] Cells were washed 2× with 1 mL PBS. After removing the second PBS wash, the cells were then treated with 6× non-reducing SDS sample buffer and collected. The collected cell lysate was divided into two parts. One half was treated with 5% β-ME, to remove bound cyclic disulfides, as negative controls. The other half was treated with equal amount of milliQ water. All the cell lysate samples were then heated at 80° C. for 10 minutes in an Eppendorf Thermomixer. The samples were spun at 14000 rpm for 5 minutes in Beckman Coulter Microfuge centrifuge. HeLa cell extracts were separated on 12% SDS-polyacrylamide TrisHCl gels run at 80 V at room temperature. Proteins were transferred to nitrocellulose membranes for Western blotting. Monomer and covalently-linked dimer SOD1 were detected using the rabbit polyclonal anti-SOD1 antibody SOD100. Membranes are incubated with HRP-labeled secondary antibodies and visualized using ECL Western Blotting Substrate and imaged using the ChemiDoc MP.

For data set [4] the following is noted: with reduced glutathione; cited from earlier work.
The mark [5] stands for this setting: 50 μM SOD1, 20× excess compound.
Setting [6] is: 10× compound and 100× reduced glutathione.

The values below come from patent publication US12171854B2, “Heterocyclic-dithiol click chemistry” (Northeastern University, priority 2017, dated 2024).

Several values for one entry are separate records, joined by “and”; a condition that tells them apart may be missing. Identical values can stand only once. Entries after “also recorded” stand apart in the source; their conditions may differ.

T3 sequence (P00441 2-154 limits assumed): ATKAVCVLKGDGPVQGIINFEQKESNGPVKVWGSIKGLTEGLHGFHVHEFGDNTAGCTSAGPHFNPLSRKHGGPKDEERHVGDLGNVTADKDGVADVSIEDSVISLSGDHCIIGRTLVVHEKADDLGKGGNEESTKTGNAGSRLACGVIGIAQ
T1 sequence (P00441 2-154 limits assumed): as above
T4 sequence (P00441 2-154 limits assumed): as above
T2 sequence (P00441 2-154 C112S limits assumed): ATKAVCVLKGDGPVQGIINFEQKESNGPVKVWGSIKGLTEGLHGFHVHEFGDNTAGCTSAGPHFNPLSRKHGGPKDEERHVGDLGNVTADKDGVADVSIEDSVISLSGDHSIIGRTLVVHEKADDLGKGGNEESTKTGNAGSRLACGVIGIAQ

A word on the EC50: it is the midpoint of the concentration-response curve. Consider `[O-][S+]1CCCCS1` (stereo not shown) [1,2-dithiane-1-oxide], for which the EC50 on SOD1 in Hep G2 cells (EC50 for cross-linking of SOD1, Hep G2 cells, 30 min incubation, western blot) was ~5 µM and 1 to 5 µM. In addition, on C111S SOD1, the “covalent dimer formation with C111S SOD1” value is reported as “No cross-linking was observed; also recorded: no covalent dimer formation”. Also, on WT SOD1 [1] (37° C.), the “% of SOD1 cross-linked after 10 min of incubation” value was 95%. Further, the “cross-linking of SOD1, result in words” value at WT SOD1 [1] (setting [5]) is “rapid and complete dithiolate cross-linking”. Also, the “binding to single Cys residues (free Cys111 and Cys6) of SOD1” value at WT SOD1 [1] is recorded as “no binding to single Cys residues”. Besides, the “overall second order rate constant of cross-linking product formation” value on WT SOD1 [1] (multi-concentration kinetics, protocol of Singh et al.) was determined as 250 M⁻¹ s⁻¹. For the same molecule, the “cross-linking of SOD1 in the presence of DTT, result in words” value at WT SOD1 [2] is listed as “proceeded to completion; also recorded: ability to cross-link the thiol pair of SOD1”. Moreover, the “cross-linking of SOD1 in the presence of glutathione, result in words” value on WT SOD1 [3] (10:1 ratio of glutathione:compound) is “proceeded to completion; also recorded: can efficiently cross-link SOD1”. Further, at WT SOD1 [3] (setting [6]), the “cross-linking yield in the presence of glutathione” value turned out to be 100% and the “rate of cross-linking in the presence of glutathione” value is listed as “decreased”. Moreover, the “concentration at which cell viability is equivalent to untreated cells, relative to EC50” value in the data set with SH-SY5Y cells was found to be 50 fold. For the same molecule, at SOD1 in HeLa cells, the 50% effective concentration (EC50) was ~5 µM and 1 to 5 µM.

For the molecule `C1CCSSC1` [1,2-dithiane], the “% of SOD1 cross-linked after 10 min of incubation” value at WT SOD1 [1] (37° C.) is reported as 0%. The “cross-linking of SOD1, result in words” value at WT SOD1 [1] (setting [5]) is recorded as “slow cross-link formation”. The “% of SOD1 forming covalent dimer after three days (72 h)” value on WT SOD1 [1] (50 μM SOD1, 20× excess compound, 37° C., 72 h) is given as 11%. Moreover, the “binding to single Cys residues (free Cys111 and Cys6) of SOD1” value on WT SOD1 [1] is “no binding to single Cys residues”.

Regarding `[O-][S+]1CCCCCS1` (stereo not shown) [1,2-dithiepane-1-oxide], the “cross-linking of SOD1, result in words (FIG. 13)” value at WT SOD1 [1] was “rapid and complete cross-link of SOD1”.

As for `C1CCSSCC1` [1,2-dithiepane], the “cross-linking of SOD1, result in words (FIG. 13)” value on WT SOD1 [1] was “does not”.

Take `[O-][S+]1CCCCCCS1` (stereo not shown) [1,2-dithiocane-1-oxide]: on WT SOD1 [1], the “cross-linking of SOD1, result in words (FIG. 15)” value is “rapid and complete cross-link of SOD1”.

For the molecule `C1CCCSSCC1` [1,2-dithiocane], the “cross-linking of SOD1, result in words (FIG. 15)” value at WT SOD1 [1] is “does not”.

As to `OC1CSSCC1O` (stereo not shown) [oxidized DTT], the “extrapolated half-life of thiol-disulfide exchange” value in data set [4] is > 3.33 h.

Take β-lipoic acid: the “cross-linking of SOD1 in cells, result in words” value at SOD1 in Hep G2 cells was “cross-links SOD1 in Hep G2 cells, and does so more efficiently than the cyclic disulfide, α-lipoic acid”; on SOD1 in Hep G2 cells (listed as BLA) it was “cross-linked SOD1 in cells”. The “rate and extent of covalent cross-linking of SOD1 versus α-lipoic acid, in words” value at WT SOD1 [1] (mass spectrometry assay) was “Both rate and extent of covalent cross-linking of SOD1 is increased”. Moreover, at WT SOD1 [1] (mass spectrometry assay, compared to ALA), the “more SOD1 cross-linked in vitro compared to ALA” value was found to be 30%.
